According to patent publication US10981894B2, “Melanocortin subtype-2 receptor (MC2R) antagonists and uses thereof” (Crinetics Pharmaceuticals, Inc., priority 2018, dated 2021):

target: hMC2 receptor (Homo sapiens, UniProt Q01718); assay: hMC2 membrane binding assay ([125I]ACTH (1-39) Tyr23, SPA); parameters: scale not given here; conditions: crude hMC2R membranes from CRE-bla-CHO-K1 cells expressing hMC2 receptor and hMRAP; [125I]ACTH (1-39) Tyr23 0.2 nM; 1.5 hours at room temperature; read-out: MC2R binding potency
Experimental: Crude membrane fractions are prepared from CRE-bla-CHO-K1 cells stably expressing hMC2 receptor and hMRAP accessory protein (Thermo Fisher). The cells are grown to 85-100% confluence on standard tissue culture dishes in GlutaMax DMEM growth media (Gibco) with following additives: 10% dialyzed FBS (Gemini), 0.1 mM NEAA (Gibco), 25 mM HEPES (Gibco), 5 μg/mL blasticidin (Goldbio), 100 μg/mL zeocin (Invitrogen), 600 μg/mL hygromycin (Goldbio). To prepare membranes, cells are scraped and collected in 1× Dulbecco's phosphate buffered saline (Corning) and then pelleted at 1000 RPM's. The cell pellet is reconstituted in membrane preparation buffer (20 mM HEPES, 6 mM MgCl2 and 1 mM EGTA, protease inhibitor tablets (Pierce) adjusted to pH 7.4), homogenized using a dounce homogenizer, and the resulting membrane fraction is pelleted by centrifugation at 12,000 RPM's. The membrane pellet is resuspended in membrane preparation buffer, snap freezed and stored at −80° C. for later use.
Binding Assay for hMC2 Antagonists Protocol:
The hMC2 membrane binding assay utilizes the following components: radiolabel [^125I]ACTH (1-39) Tyr23 (PerkinElmer), wheatgerm agglutinin coated PVT SPA beads (PerkinElmer), crude hMC2R membranes, and compounds. Briefly hMC2R membranes are incubated with SPA beads in binding assay buffer (50 mM HEPES, 5 mM MgCl2, 1 mM CaCl2, 0.2% BSA, protease inhibitor tablets (Pierce) adjusted to pH7.4) prior to assay initiation. A dose response of compound (the final concentration of compound are typically 0-10,000 nM), SPA membranes, and [^125I]ACTH (1-39) Tyr23 at a final concentration of 0.2 nM is plated in a 96-well assay plate and allowed to incubate 1.5 hours at room temperature. Assay plates are read using a Top Count NXT and Ki values for compounds are determined using a GraphPad Prism 6 non-linear regression analysis.

Chain of hMC2 receptor (Q01718 whole entry): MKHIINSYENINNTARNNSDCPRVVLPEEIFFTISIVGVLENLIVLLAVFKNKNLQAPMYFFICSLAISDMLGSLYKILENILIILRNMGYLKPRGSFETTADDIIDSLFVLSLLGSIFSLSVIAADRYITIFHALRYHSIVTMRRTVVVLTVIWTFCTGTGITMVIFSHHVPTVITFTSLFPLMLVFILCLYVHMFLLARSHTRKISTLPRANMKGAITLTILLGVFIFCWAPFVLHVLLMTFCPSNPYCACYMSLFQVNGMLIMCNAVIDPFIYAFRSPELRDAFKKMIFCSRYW
Chain of hMC2 receptor (Q8TCY5 whole entry partner): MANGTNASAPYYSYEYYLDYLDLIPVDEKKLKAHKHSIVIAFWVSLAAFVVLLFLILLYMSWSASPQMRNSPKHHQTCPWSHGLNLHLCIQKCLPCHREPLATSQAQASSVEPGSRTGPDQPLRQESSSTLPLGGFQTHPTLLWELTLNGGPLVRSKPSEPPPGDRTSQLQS

Ki, < 10 nM:
CCOc1ncccc1-c1ccc(N2CCN(C(=O)c3ccc(Cl)cc3C(F)F)C[C@H]2CC)c(C(=O)NCCN(C)C)n1 [Compound 1-210, 5-[(2R)-4-[4-chloro-2-(difluoromethyl)benzoyl]-2-ethylpiperazin-1-yl]-N-[2-(dimethylamino)ethyl]-2′-ethoxy-[2,3′-bipyridine]-6-carboxamide]
CCOc1ncccc1-c1ccc(N2CCN(C(=O)N3CCC[C@H]3C(C)(C)F)C[C@H]2CC)c(C(=O)N[C@@H]2CCNC2)n1 [Compound 1-320, 2′-ethoxy-5-[(2R)-2-ethyl-4-[(2S)-2-(2-fluoropropan-2-yl)pyrrolidine-1-carbonyl]piperazin-1-yl]-N-[(3R)-pyrrolidin-3-yl]-[2,3′-bipyridine]-6-carboxamide]
CCOc1ccccc1-c1ccc(N2CCN(C(=O)n3ccc4cccc(Cl)c43)C[C@H]2CC)c(C(=O)N[C@@H]2CCN(C)C2)n1 [Compound 1-431, 3-[(2R)-4-(7-chloro-1H-indole-1-carbonyl)-2-ethylpiperazin-1-yl]-6-(2-ethoxyphenyl)-N-[(3R)-1-methylpyrrolidin-3-yl]pyridine-2-carboxamide]
CCOc1ncccc1-c1ccc(N2CCN(C(=O)c3ccc(Cl)cc3C(F)(F)F)C[C@H]2CC)c(C(=O)NCCc2ncc[nH]2)c1F [Compound 1-116, 6-[(2R)-4-[4-chloro-2-(trifluoromethyl)benzoyl]-2-ethylpiperazin-1-yl]-3-(2-ethoxypyridin-3-yl)-2-fluoro-N-[2-(1H-imidazol-2-yl)ethyl]benzamide]
CCOc1ncccc1-c1ccc(N2CCN(C(=O)N3CCc4cccc(C)c43)C[C@H]2CC)c(C(=O)N[C@@H]2CCNC2)n1 [Compound 1-360, 2′-ethoxy-5-[(2R)-2-ethyl-4-(7-methyl-2,3-dihydro-1H-indole-1-carbonyl)piperazin-1-yl]-N-[(3R)-pyrrolidin-3-yl]-[2,3′-bipyridine]-6-carboxamide]
CCOc1ncccc1-c1ccc(N2CCN(C(=O)c3ccc(F)cc3N3CC[C@H](NC)C3)C[C@H]2CC)c(C(=O)N[C@@H]2CCNC2)c1 [Compound 1-101, 5-(2-ethoxypyridin-3-yl)-2-[(2R)-2-ethyl-4-{4-fluoro-2-[(3S)-3-(methylamino)pyrrolidin-1-yl]benzoyl}piperazin-1-yl]-N-[(3R)-pyrrolidin-3-yl]benzamide]
CCOc1ncccc1-c1ccc(N2CCN(C(=O)c3ccc(C(F)(F)F)nc3N(C)C)C[C@H]2CC)c(C(=O)NCCN)c1 [Compound 1-76, N-(2-aminoethyl)-2-[(2R)-4-[2-(dimethylamino)-6-(trifluoromethyl)pyridine-3-carbonyl]-2-ethylpiperazin-1-yl]-5-(2-ethoxypyridin-3-yl)benzamide]
CCOc1ncccc1-c1ccc(N2CCN(C(=O)c3ccc(C)cc3N3CC[C@H](NC)C3)C[C@H]2CC)c(C(=O)NCCN)c1 [Compound 1-67, N-(2-aminoethyl)-5-(2-ethoxypyridin-3-yl)-2-[(2R)-2-ethyl-4-{4-methyl-2-[(3S)-3-(methylamino)pyrrolidin-1-yl]benzoyl}piperazin-1-yl]benzamide]
CCOc1ncccc1-c1ccc(N2CCN(C(=O)c3ccc(Cl)cc3N3CCNCC3)C[C@H]2CC)c(C(=O)N[C@@H]2CCNC2)c1 [Compound 1-90, 2-[(2R)-4-[4-chloro-2-(piperazin-1-yl)benzoyl]-2-ethylpiperazin-1-yl]-5-(2-ethoxypyridin-3-yl)-N-[(3R)-pyrrolidin-3-yl]benzamide]
CCOc1ncccc1-c1ccc(N2CCN(C(=O)c3ccc(Cl)cc3OC)C[C@H]2CC)c(C(=O)NCCN)c1 [Compound 1-54, N-(2-aminoethyl)-2-[(2R)-4-(4-chloro-2-methoxybenzoyl)-2-ethylpiperazin-1-yl]-5-(2-ethoxypyridin-3-yl)benzamide]
CCOc1ncccc1-c1ccc(N2CCN(C(=O)C3(C(F)(F)F)CC4CCC3C4)C[C@H]2CC)c(C(=O)NCC2CN(C)C2)n1 (stereo partly drawn) [Compound 1-339, 2′-ethoxy-5-[(2R)-2-ethyl-4-[2-(trifluoromethyl)bicyclo[2.2.1]heptane-2-carbonyl]piperazin-1-yl]-N-[(1-methylazetidin-3-yl)methyl]-[2,3′-bipyridine]-6-carboxamide]
CCOc1ccccc1-c1ccc(N2CCN(C(=O)N3CCc4cccc(C(F)(F)F)c43)C[C@H]2CC)c(C(=O)N[C@H]2CCN(C)C2)n1 [Compound 1-402, 6-(2-ethoxyphenyl)-3-[(2R)-2-ethyl-4-[7-(trifluoromethyl)-2,3-dihydro-1H-indole-1-carbonyl]piperazin-1-yl]-N-[(3S)-1-methylpyrrolidin-3-yl]pyridine-2-carboxamide]
CCOc1ccc(C(=O)N2CCN(c3ccc(-c4cccnc4OCC)nc3C(=O)NCC3CN(C)C3)[C@H](CC)C2)c(C(F)(F)F)n1 [Compound 1-249, 2′-ethoxy-5-[(2R)-4-[6-ethoxy-2-(trifluoromethyl)pyridine-3-carbonyl]-2-ethylpiperazin-1-yl]-N-[(1-methylazetidin-3-yl)methyl]-[2,3′-bipyridine]-6-carboxamide]
CCOc1ccc(C(=O)N2CCN(c3ccc(-c4cccnc4OCC)nc3CN)[C@H](CC)C2)c(C(F)(F)F)c1 [Compound 2-25, 1-{2′-ethoxy-5-[(2R)-4-[4-ethoxy-2-(trifluoromethyl)benzoyl]-2-ethylpiperazin-1-yl]-[2,3′-bipyridin]-6-yl}methanamine]
CCOc1ccccc1-c1ccc(N2CCN(C(=O)N3CCCC[C@H]3C(F)(F)F)C[C@H]2CC)c(C(=O)N[C@H]2CCN(C)C2)n1 [Compound 1-435, 6-(2-ethoxyphenyl)-3-[(2R)-2-ethyl-4-[(2S)-2-(trifluoromethyl)piperidine-1-carbonyl]piperazin-1-yl]-N-[(3S)-1-methylpyrrolidin-3-yl]pyridine-2-carboxamide]
CCOc1ccccc1-c1ccc(N2CCN(C(=O)n3ccc4cc(F)cc(C#N)c43)C[C@H]2CC)c(C(=O)N[C@@H]2CCN(C)C2)n1 [Compound 1-439, 3-[(2R)-4-(7-cyano-5-fluoro-1H-indole-1l-carbonyl)-2-ethylpiperazin-1-yl]-6-(2-ethoxyphenyl)-N-[(3R)-1-methylpyrrolidin-3-yl]pyridine-2-carboxamide]
CCOc1ncccc1-c1ccc(N2CCN(C(=O)c3ccc(C)cc3Cl)C[C@H]2CC)c(C(=O)NCCN)c1 [Compound 1-43, N-(2-aminoethyl)-2-[(2R)-4-(2-chloro-4-methylbenzoyl)-2-ethylpiperazin-1-yl]-5-(2-ethoxypyridin-3-yl)benzamide]
CCOc1ncccc1-c1ccc(N2CCN(C(=O)C3(CC)CCCC3)C[C@H]2CC)c(C(=O)NCCNC)n1 [Compound 1-264, 2′-ethoxy-5-[(2R)-2-ethyl-4-(1-ethylcyclopentanecarbonyl)piperazin-1-yl]-N-[2-(methylamino)ethyl]-[2,3′-bipyridine]-6-carboxamide]
CCOc1ccc(C(=O)N2CCN(c3ccc(-c4cccnc4OCC)nc3C(=O)NCCNC)[C@H](CC)C2)c(C(F)(F)F)n1 [Compound 1-181, 2′-ethoxy-5-[(2R)-4-[6-ethoxy-2-(trifluoromethyl)pyridine-3-carbonyl]-2-ethylpiperazin-1-yl]-N-[2-(methylamino)ethyl]-[2,3′-bipyridine]-6-carboxamide]
CCOc1ncccc1-c1ccc(N2CCN(C(=O)c3ccc(Cl)cc3Cl)C[C@H]2CC)c(C(=O)N[C@@H]2CCNC2)n1 [Compound 1-267, 5-[(2R)-4-(2,4-dichlorobenzoyl)-2-ethylpiperazin-1-yl]-2′-ethoxy-N-[(3R)-pyrrolidin-3-yl]-[2,3′-bipyridine]-6-carboxamide]
CCOc1ccc(C(=O)N2CCN(c3ccc(-c4cccnc4OCC)nc3C(=O)NCCN(C)C)[C@H](CC)C2)c(C(F)(F)F)n1 [Compound 1-207, N-[2-(dimethylamino)ethyl]-2′-ethoxy-5-[(2R)-4-[6-ethoxy-2-(trifluoromethyl)pyridine-3-carbonyl]-2-ethylpiperazin-1-yl]-[2,3′-bipyridine]-6-carboxamide]
CCOc1ncccc1-c1ccc(N2CCN(C(=O)N3CCc4cc(F)cc(Cl)c43)C[C@H]2CC)c(C(=O)NC2CN(C)C2)n1 [Compound 1-420, 5-[(2R)-4-(7-chloro-5-fluoro-2,3-dihydro-1H-indole-1-carbonyl)-2-ethylpiperazin-1-yl]-2′-ethoxy-N-(1-methylazetidin-3-yl)-[2,3′-bipyridine]-6-carboxamide]
